Source: patent publication EP2608783B1, “USE OF GLYCYRRHETINIC ACID, GLYCYRRHIZIC ACID AND RELATED COMPOUNDS FOR PREVENTION AND/OR TREATMENT OF PULMONARY FIBROSIS” (Zhang, Lurong, priority 2010, dated 2012)

Legend:
[1] = tested on: IR-induced pneumonitis; test: Lung morphology: plasma exudation and inflammatory cell infiltration, acute phase of IR-induced pneumonitis; format: in vivo, C57BL/6 fibrosis-prone mice; conditions: 2.5 days after thoracic IR at 15 Gy
Procedure: Briefly, C57BL/6 fibrosis-prone mice received a single-dose of thoracic IR at 15 Gy with a dose rate of 1.9 Gy/min and were treated as described in Example 2. The mice were sacrificed 2.5 days after IR exposure, and lung tissues were harvested and analyzed for morphological changes.

[2] = tested on: inflammatory mediators (IMs), including IL1a, TNFa, PF4 and VCAM-1; test: Inflammatory mediators in lung homogenates by ELISA, acute phase of IR-induced pneumonitis; format: in vivo, C57BL/6 fibrosis-prone mice; conditions: 2.5 days after thoracic IR at 15 Gy, compared to vehicle-treated mice, p<0.05
Procedure: Briefly, C57BL/6 fibrosis-prone mice received a single-dose of thoracic IR at 15 Gy with a dose rate of 1.9 Gy/min. Six hours after IR exposure, the mice were divided into the following treatment groups: 1) normal (received 0 Gy; no treatment); 2) vehicle-treated; 3) GA-treated (30-40 mg/kg/ q.o.d) (i.e. every other day) (the GA dosage used herein was derived from the effective dosage for humans (3-4 mg/kg), which is typically 6-10 times lower than that of mice); 4) dexamethasone-treated (Positive Control 1) (Dex, 3 mg/kg, i.m. or p.o. qod); 5) amifostine-treated (Positive Control 2) (Ami, 200 mg/kg/ i.v, 0.5 hr prior to irradiation); and 6) celebrex-treated (Positive Control 3) (30 mg/kg, po, qod).
The mice were sacrificed 2.5 days after IR exposure, and fresh lung tissue homogenates were prepared using lysis buffer mixed with protenase inhibitor cocktails. After protein concentration was adjusted to 1 mg/ml, the fresh lung homogenates were added to ELISA plates at a concentration of 100 µl/well. The levels of inflammatory mediators were measured by ELISA.

[3] = tested on: hydroxyproline; TGFβ; test: Hydroxyproline and TGFβ levels in lungs; format: in vivo, mice
Source text: The reduction of collagen deposition was further analyzed by measuring the levels of hydroxyproline, a key component of collagen.

[4] = tested on: IR-induced pulmonary fibrosis; test: Lung density by cone beam CT scan (CBCT) in IR-induced pulmonary fibrosis; format: in vivo, mice; conditions: for abnormal increase in lung density: 7.5 months after IR exposure at 15 Gy (Figure 14), P<0.05
Procedure: To assess effects of GA on lung density, cone beam CT scan (CBCT) of mouse lungs was performed. CBCT provides a complete 3D 650×650×428 scan (i.e. 428 slices) of the lungs with isotropic resolution at 270 µm (central slice shown in Fig. 11) in 30 seconds. The scanner achieves a CT density sensitivity of ∼[…], and thus, changes in lung density can be discerned. The CBCT imaging data were further analyzed using MATLAB software. The lungs were automatically segmented (Fig. 12A) and a 3D image was generated for each mouse lung (Fig. 12B). To reduce the effect of cardiac motion on the mean value of lung density, boundaries of the lungs were not used for analysis. A histogram of voxel intensity (pulmonary tissue density) of each mouse was created (Fig. 13).

[5] = tested on: IR-induced pneumonitis; test: Sub-acute phase of IR-induced pneumonitis: lung tissue and bronchoalveolar lavage fluid (BALF) assays; format: in vivo, C57BL/6 fibrosis-prone mice
Procedure: Briefly, C57BL/6 fibrosis-prone mice received a thoracic IR and were treated as described in Example 2. The mice were sacrificed 17 days after IR exposure, and lung tissues were harvested. Bronchoalveolar lavage fluid (BALF) assays were performed.

[6] = tested on: IR-induced fibrosis; test: Lung histology (H&E stain, trichrome blue collagen stain) in IR-induced fibrosis; format: in vivo, mice; conditions: GA 40 mg/kg/q.o.d. for 3 months; 7 months after IR exposure at 15 Gy
Procedure: Briefly, mice treated with GA (40 mg/kg/q.o.d.) for 3 months were sacrificed 7 months after IR exposure at 15 Gy, and lung tissue specimens were stained using hematoxylin and eosin (H&E) stain. […] To assess whether GA reduces abnormal collagen deposition in lungs, lung tissue specimen was stained with collagen-binding trichrome blue dye.

[7] = tested on: growth hormone (GH); test: Plasma growth hormone by ELISA during long-term treatment
Procedure: In addition, plasma levels of growth hormone (GH) were measured using ELISA at Weeks 6, 7, and 10 after GA treatments.

[8] = tested on: IR-induced pulmonary fibrosis; test: Respiratory rate (rodent ventilator with pressure plethysmograph) in IR-induced pulmonary fibrosis; format: in vivo, mice; conditions: GA 30-40 mg/kg q.o.d. or twice/week for 3 months; 7 months after IR at 15 Gy, 5 months after IR at 18 Gy; P<0.05
Procedure: Mice exposed to thoracic IR develops pulmonary fibrosis 6 months after IR exposure at 18 Gy, 8 months after IR exposure at 15 Gy, and 10 months after IR exposure at 12.5 Gy. To access the treatment effects of GA on lung fibrosis and lung function, the respiratory rate, lung density, and lung compliance of the mice were determined. To assess improvement on respiratory function, mice exposed to thoracic IR at 15 Gy were treated with GA (30-40 mg/kg) q.o.d. or twice/week for 3 months. Mouse respiratory rate was measured using a Harvard rodent ventilator connected to a pressure plethysmograph.

[9] = tested on: SP-D and IL1a; test: Plasma levels of SP-D and IL1a, acute phase of IR-induced pneumonitis; format: in vivo, C57BL/6 fibrosis-prone mice; conditions: 2.5 days after thoracic IR at 15 Gy; P<0.05
Procedure: IR damages lung epithelium and endothelium cells, and causes dysfunction of tight junction, increased cellular permeability, and the loss of integrity of the alveolar-capillary barrier. As a result, SP-D and ILla abnormally enter into the blood from inflamed pulmonary tissue, leading to elevated plasma levels of SP-D and IL1a. In this Example, C57BL/6 fibrosis-prone mice received a single-dose of thoracic IR at 15 Gy with a dose rate of 1.9 Gy/min and were treated as described in Example 2. The mice were sacrificed 2.5 days after IR exposure, and plasma levels of SP-D and IL1a were measured.

[10] = tested on: IL1a, TNFa, lymphotactin and p-selectin; test: Inflammatory mediators, GA given 24 hours after IR exposure; format: in vivo, mice; conditions: GA administered 24 hours after IR exposure; thoracic IR at 5, 10 and 15 Gy
Procedure: The administration of GA 24 hours after IR exposure can effectively block the surge in inflammatory responses.

[11] = Long-term toxicity observation (activity, fur morphology, body weight); format: in vivo
Source text: No mouse died during GA treatment.

[12] = tested on: IR-induced pulmonary fibrosis; test: Lung compliance (plethysmograph pressure-volume measurements); format: in vivo, mice; conditions: 6.5 months after IR exposure at 15 Gy; P<0.05
Procedure: To assess the effects of GA on lung compliance, mice were anesthetized and their trachea were surgically exposed and incised. An 18-gauge, 1 cm stainless steel tube was inserted into the trachea and secured with surgical sutures. The respiratory rate and tidal volume of the mice were measured by a Harvard rodent ventilator. The average respiratory rate was 150 breaths per minute and the tidal volume was adjusted according to the weight (0.01 ml per gram body weight). The mice were then placed in a plethysmograph for pressure-volume measurements.

[13] = tested on: IR-induced pneumonitis; test: Clinical case: GLA tablets in a lung cancer patient receiving 2nd IR treatment; format: in vivo; conditions: one patient
Procedure: In collaboration with radiation oncologists at the First Affiliated Hospital of Fujian Medical School in China, GLA tablets (produced by Minophagen Co. in Japan and available in pharmacies in China) were administered to a patient who received their 2nd IR treatment for lung cancer. […] To control the progression of pneumonitis, they received dexamethasone treatment. Due to tumor re-growth 9 months after their 1st IR treatment, they received a 2nd IR treatment with warnings that IR may worsen pneumonitis. In order to mitigate IR-induced lung injury, GLA was administered at a dose of 150 mg per day (equivalent to GA about 85 mg per day) starting from the date of 2nd IR treatment for 3 months. The result was unexpectedly surprising.

[14] = tested on: ACTH (adrenocorticotropic hormone); conditions: in vivo
Procedure: The chemical structure of GA is similar to that of cortisol. Thus, this Example investigates whether the long-term use of GA would affect the production of cortisol and cause side effects. The plasma levels of ACTH (adrenocorticotropic hormone), a cortisol-releasing hormone, were measured using ELISA at Weeks 6, 7, and 10 after GA-treatments (40 mg/kg, qod, p.o).

[15] = tested on: pulmonary fibrosis; test: Inventors' observation on dexamethasone in pulmonary fibrosis; format: in vivo; conditions: compared to the non-treated controls
[16] = 17 days after IR exposure at 15 Gy, P<0.05
[17] = 17 days after IR exposure, P<0.05

For `CC1(C)[C@@H](O)CC[C@]2(C)[C@H]3C(=O)C=C4[C@@H]5C[C@@](C)(C(=O)O)CC[C@]5(C)CC[C@@]4(C)[C@]3(C)CC[C@@H]12` [GA, glycyrrhetinic acid], the “plasma exudation and inflammatory cell infiltration into the interstitial space” value [1] was “potently suppressed”, the “levels of inflammatory mediators (IMs), including IL1a, TNFa, PF4 and VCAM-1” value (shortened to “levels of inflammatory mediators (IMs)”) [2] was “effectively reduced” and the “hydroxyproline levels in the lungs” value ([3]; compared to IR + vehicle control, P<0.05) was “reduced”. The “level of TGFβ” value ([3]; pro-fibrotic factor, Figure 18B) was “reduced”, the “abnormal increase in lung density” value [4] was “significantly reduced” and the “Mean Density (HU)” value ([4]; lung density, 1 year post IR exposure at 18 Gy) was -458 HU. The “infiltration of neutrophils into the interstitial fluid” value ([5]; 17 days after IR exposure at 15 Gy) was “suppression”, the “level of neutrophils infiltrated into the bronchoalveolar lavage fluid” value [5, 16] was “reduced” and the “myeloperoxidase (MPO) activity in (BALF)” value [5, 16] was “reduced”. The level of lymphotactin [5, 17] was “reduced”, the level of p-selectin [5, 17] was “reduced” and the “collagen deposition caused by IR exposure (trichrome blue dye)” value [6] was “reduces”. The “lung morphology (H&E stain)” value [6] was “near-normal morphology”, the “plasma GH level” value ([7]; in vivo) was “increased” and the respiratory rate [8] was “effectively reduced”. The “plasma levels of IL1a” value [9] was “effectively reduced”, the “plasma levels of SP-D” value [9] was “effectively reduced” and the “levels of key inflammatory mediators including IL1a, TNFa, lymphotactin and p-selectin” value [10] was “potently reduced”. For the same compound, the death during treatment ([11]; long-term use) was “No mouse died”, the “side effects of long-term use” value ([11]; mouse, in vivo) was “little side effects” and the lung compliance [12] was “potently, and mostly effectively, enhanced”.

With `CC1(C)[C@@H](O[C@H]2O[C@H](C(=O)O)[C@@H](O)[C@H](O)[C@H]2O[C@@H]2O[C@H](C(=O)O)[C@@H](O)[C@H](O)[C@H]2O)CC[C@]2(C)[C@H]3C(=O)C=C4[C@@H]5C[C@@](C)(C(=O)O)CC[C@]5(C)CC[C@@]4(C)[C@]3(C)CC[C@@H]12` [GLA, glycyrrhizic acid] the “symptoms of pneumonitis or fibrosis” value ([13]; 150 mg per day for 3 months from date of 2nd IR treatment) was “did not exhibit any symptom of pneumonitis or fibrosis” and the “lung density (CT)” value ([13]; CT results of 1st versus 2nd IR treatment (Figure 20)) was “significantly reduced”.

In the case of `NCCCNCCSP(=O)(O)O` [amifostine], the “levels of inflammatory mediators (IMs)” value [2] is reported as “extent of inhibition by GA was comparable”.

With `Cc1ccc(-c2cc(C(F)(F)F)nn2-c2ccc(S(N)(=O)=O)cc2)cc1` [celebrex, reference compound] the “levels of inflammatory mediators (IMs)” value [2] was “extent of inhibition by GA was comparable”, the “abnormal increase in lung density” value [4] was “reduction in lung density by GA is more potent” and the “loss of body weight (BW)” value ([11]; 7.5 months post IR exposure at 15 Gy, vehicle-treated mice lost 6-7 grams) was “less severe loss of BW”.

With `C[C@@H]1C[C@H]2[C@@H]3CCC4=CC(=O)C=C[C@]4(C)[C@@]3(F)[C@@H](O)C[C@]2(C)[C@@]1(O)C(=O)CO` [dexamethasone] the “reduction in ACTH levels” value [14] was 10-50 fold, the “plasma GH level” value ([7]; measured at Weeks 6, 7, and 10) was “increased” and the “effect on pulmonary fibrosis” value [15] was “worsening of pulmonary fibrosis”.
